Assays:
[1] = tested on: SH-SY5Y cells; assay: SH-SY5Y neuroblastoma cell toxicity; format: cell-based, human; conditions: for neurotoxicity / cytotoxicity on SH-SY5Y cells: 10–100 μM, 48 h incubation, MTT
[2] = In vivo antioxidant potential in mice; conditions: 5 mg kg^−1, SOD, CAT, GSH
[3] = molecular target: T1, human MAO-B (Homo sapiens, UniProt P27338); assay: MAO-B inhibition assay; format: biochemical; conditions: for SI = IC50 of MAO-A/IC50 of MAO-B: selectivity index
T1 sequence (P27338 1-520): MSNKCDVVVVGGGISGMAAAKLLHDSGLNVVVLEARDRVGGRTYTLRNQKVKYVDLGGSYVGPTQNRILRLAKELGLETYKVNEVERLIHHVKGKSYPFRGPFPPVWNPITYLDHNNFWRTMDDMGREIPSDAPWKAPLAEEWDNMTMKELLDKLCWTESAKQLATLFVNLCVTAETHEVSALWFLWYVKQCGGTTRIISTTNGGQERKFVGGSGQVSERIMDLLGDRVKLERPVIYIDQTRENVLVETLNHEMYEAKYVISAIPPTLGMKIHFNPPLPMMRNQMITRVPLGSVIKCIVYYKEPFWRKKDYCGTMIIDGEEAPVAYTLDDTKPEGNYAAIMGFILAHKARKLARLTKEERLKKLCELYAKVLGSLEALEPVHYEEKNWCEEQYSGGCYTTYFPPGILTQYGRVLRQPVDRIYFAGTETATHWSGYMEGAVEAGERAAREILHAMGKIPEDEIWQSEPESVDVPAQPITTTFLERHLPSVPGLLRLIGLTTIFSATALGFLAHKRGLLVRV

[4] = ABTS radical cation scavenging assay; conditions: read-out: IC50 (μM) ± SEM ABTS
[5] = molecular target: eeAChE (Electrophorus electricus, UniProt O42275); assay: Cholinesterase inhibition, Ellman's assay; format: biochemical, electric eel; conditions: for SI = IC50 of BChE/IC50 of AChE: selectivity index
[6] = DPPH radical scavenging assay; conditions: read-out: IC50 (μM) ± SEM DPPH
[7] = Ferric ion reducing antioxidant power; conditions: μM equivalent to the standard antioxidant ascorbic acid
[8] = molecular target: T2, human MAO-A (Homo sapiens, UniProt P21397); assay: MAO-A inhibition assay; format: biochemical
T2 sequence (P21397 1-527): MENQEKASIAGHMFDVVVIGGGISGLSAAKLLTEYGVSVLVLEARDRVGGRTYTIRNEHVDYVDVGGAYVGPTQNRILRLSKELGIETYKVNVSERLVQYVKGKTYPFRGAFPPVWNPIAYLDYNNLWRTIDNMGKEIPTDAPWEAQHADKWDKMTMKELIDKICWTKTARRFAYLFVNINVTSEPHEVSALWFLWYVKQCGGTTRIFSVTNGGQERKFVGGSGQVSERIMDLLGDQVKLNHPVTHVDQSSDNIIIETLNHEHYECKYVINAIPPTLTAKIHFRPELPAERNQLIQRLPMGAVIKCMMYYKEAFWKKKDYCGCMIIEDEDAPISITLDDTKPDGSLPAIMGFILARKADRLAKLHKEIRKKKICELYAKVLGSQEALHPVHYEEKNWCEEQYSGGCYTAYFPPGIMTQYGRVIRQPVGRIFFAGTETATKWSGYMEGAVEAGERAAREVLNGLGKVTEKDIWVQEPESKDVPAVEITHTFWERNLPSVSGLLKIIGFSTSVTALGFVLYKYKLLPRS

[9] = molecular target: eqBChE (Equus caballus, UniProt P81908); assay: biochemical
[10] = molecular target: Aβ1–42 peptide (Homo sapiens, UniProt P05067); assay: ThT fluorescence assay for self-mediated Aβ1–42 aggregation; format: biochemical; conditions: after a 24-hour equimolar administration, ThT fluorescence (Fig. 4)
Aβ1–42 peptide, sequence (P05067 672-713): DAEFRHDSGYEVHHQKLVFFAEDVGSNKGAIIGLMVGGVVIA

eeAChE, sequence (O42275 24-633): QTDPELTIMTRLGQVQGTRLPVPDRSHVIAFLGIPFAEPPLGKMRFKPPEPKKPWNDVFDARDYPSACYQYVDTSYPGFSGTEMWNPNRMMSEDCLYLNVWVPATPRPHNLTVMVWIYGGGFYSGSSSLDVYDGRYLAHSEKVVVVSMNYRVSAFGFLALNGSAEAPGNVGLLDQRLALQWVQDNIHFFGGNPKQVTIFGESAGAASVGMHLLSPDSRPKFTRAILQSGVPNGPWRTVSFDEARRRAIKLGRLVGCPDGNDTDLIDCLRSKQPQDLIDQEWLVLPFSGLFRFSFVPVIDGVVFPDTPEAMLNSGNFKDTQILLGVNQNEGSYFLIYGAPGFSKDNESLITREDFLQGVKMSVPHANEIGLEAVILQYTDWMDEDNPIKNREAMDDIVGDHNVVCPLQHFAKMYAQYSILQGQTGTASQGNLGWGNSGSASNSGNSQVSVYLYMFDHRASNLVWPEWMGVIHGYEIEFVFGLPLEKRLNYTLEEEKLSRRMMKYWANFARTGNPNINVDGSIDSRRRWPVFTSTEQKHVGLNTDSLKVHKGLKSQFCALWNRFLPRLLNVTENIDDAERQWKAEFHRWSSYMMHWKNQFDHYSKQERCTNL
eqBChE, sequence (P81908 whole entry): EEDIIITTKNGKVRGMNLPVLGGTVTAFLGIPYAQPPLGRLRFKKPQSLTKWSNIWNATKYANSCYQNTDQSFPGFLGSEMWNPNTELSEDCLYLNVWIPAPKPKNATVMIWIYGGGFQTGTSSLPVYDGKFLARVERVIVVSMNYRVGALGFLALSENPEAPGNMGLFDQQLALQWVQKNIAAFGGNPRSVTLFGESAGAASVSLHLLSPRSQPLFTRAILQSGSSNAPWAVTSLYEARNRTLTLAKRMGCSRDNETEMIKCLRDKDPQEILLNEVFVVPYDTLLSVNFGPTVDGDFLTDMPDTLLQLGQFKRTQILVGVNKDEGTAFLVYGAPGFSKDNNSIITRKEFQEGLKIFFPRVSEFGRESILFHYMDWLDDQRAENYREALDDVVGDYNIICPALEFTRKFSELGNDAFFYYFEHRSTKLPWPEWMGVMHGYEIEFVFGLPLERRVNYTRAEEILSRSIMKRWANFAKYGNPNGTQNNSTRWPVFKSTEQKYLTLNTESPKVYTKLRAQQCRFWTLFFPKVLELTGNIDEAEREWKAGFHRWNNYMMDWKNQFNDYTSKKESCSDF

inhibition of amyloid beta fibrils [10] | Compound | neurotoxicity / cytotoxicity on SH-SY5Y cells [1] | in vivo antioxidant activity [2] | IC50 [3] | protective ability on SH-SY5Y ([1]; at all concentrations (10–100 μM)) | IC50 [4] | IC50 [5] | IC50 [6] | FRAP value [7] | SI = IC50 of MAO-A/IC50 of MAO-B [3] | IC50 [8] | SI = IC50 of BChE/IC50 of AChE [5] | IC50 [9]
 | Cc1c(C)c2c(c(C)c1O)CCC(C)(C(=O)O)O2 (centres unmarked) [trolox, reference compound] | no cytotoxicity | significant antioxidant potential |  |  |  |  |  |  |  |  |  | 
 | CC(NC(=O)c1cc(O)c(O)c(O)c1)C(N)=O (centres unmarked) [Compound 27, N-(1-Amino-1-oxopropan-2-yl)-3,4,5-trihydroxybenzamide] |  |  | 30.2 ± 1.18 µM | 40–50% | 20.4 ± 0.3 µM | 49.03 ± 0.1 µM | 14.6 ± 0.52 µM |  |  |  |  | 
 | C#CCN[C@@H]1CCc2ccccc21 [rasigiline, rasagiline, reference compound] | no cytotoxicity |  |  |  |  |  |  |  |  |  |  | 
 | COc1cc(/C=C/C(=O)NC(C)C(N)=O)ccc1O (centres unmarked) [Compound 18, (E)-N-(1-Amino-1-oxopropan-2-yl)-3-(4-hydroxy-3-methoxyphenyl)acrylamide] |  |  | 10 ± 1.03 µM |  | 45.1 ± 1.77 µM | 58.4 ± 0.09 µM | 58.3 ± 1.21 µM | 29.84 µM |  |  |  | 
 | COc1cc(/C=C/C(=O)Nc2ccc(S(N)(=O)=O)cc2)ccc1O [Compound 24, (E)-3-(4-Hydroxy-3-methoxyphenyl)-N-(4-sulfamoylphenyl)acryl-amide] |  |  | 0.142 ± 0.011 µM |  | 48.8 ± 1.2 µM | 10.74 ± 0.1 µM | 21.21 ± 0.15 µM | 14.75 µM | 539 | 76.6 ± 1.22 µM | 5 | 58.2 ± 1.41 µM
 | COc1cc(/C=C/C(=O)Nc2nc3ccc(O)cc3s2)ccc1O [Compound 21, (E)-3-(4-Hydroxy-3-methoxyphenyl)-N-(6-hydroxybenzo[d]thiazol-2-yl)acrylamide] |  |  | 0.491 ± 0.024 µM |  | 6.29 ± 0.09 µM | 29.84 ± 0.1 µM | 14.44 ± 0.13 µM | 36.01 µM | 75 | 37.1 ± 1.03 µM | 1 | 43.1 ± 1.09 µM
 | O=C(O)c1cc(O)c(O)c(O)c1 [Gallic acid, reference compound] |  |  |  |  | 35.2 ± 1.19 µM |  | 35.2 ± 1.04 µM |  |  |  |  | 
 | COc1cc(/C=C/C(=O)O)ccc1O [Ferulic acid, trans-4-hydroxy-3-methoxycinnamic acid, reference compound] |  |  |  |  |  |  | 69.8 ± 1.48 µM |  |  |  |  | 
around 60% | COc1cc(/C=C/C(=O)CC(=O)/C=C/c2ccc(O)c(OC)c2)ccc1O [Curcumin, reference compound] |  |  |  |  |  |  |  |  |  |  |  | 
 | CC(NC(=O)/C=C/c1ccc(-c2ccccc2)cc1)C(N)=O (centres unmarked) [Compound 20, (E)-3-([1,1′-Biphenyl]-4-yl)-N-(1-amino-1-oxopropan-2-yl)acryl-amide] |  |  | 0.513 ± 0.07 µM |  | 77.1 ± 1.37 µM | 13.51 ± 0.1 µM |  | 44.81 µM | 19 | 10 ± 0.925 µM | 6 | 84.1 ± 1.32 µM
 | NS(=O)(=O)c1ccc(NC(=O)c2cc(O)c(O)c(O)c2)cc1 [Compound 29, 3,4,5-Trihydroxy-N-(4-sulfamoylphenyl)benzamide] | did not show any apparent neurotoxicity | not determined to be active | 0.395 ± 0.34 µM |  | 23.5 ± 1.04 µM | 3.64 ± 0.1 µM | 10.8 ± 0.63 µM |  | 54 | 21.4 ± 0.316 µM | 9 | 34 ± 1.18 µM
 | O=C1O[C@H]([C@@H](O)CO)C(O)=C1O [Ascorbic acid, reference compound] |  |  |  |  | 6.08 ± 0.21 µM |  | 4.89 ± 0.09 µM | 90.89 µM |  |  |  | 

— article PMC10976477 (RSC Advances, 2024)
